Experimental data as given in PubChem BioAssay AID220 (DTP/NCI, 2004).
“And” between values parts separate entries of the source, which are not always exact repeats. Equal values may be shown once. Records with an inconclusive call do not appear.

Tested on: CD8F1 mice, subcutaneous mammary adenocarcinoma, T/C%
Experiment: NCI In Vivo Anticancer Drug Screen. Data for tumor model Mammary Adenocarcinoma CD8F1 (subcutaneous) in CD8F1
Conditions: higher = larger tumour
Outline: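 Compound-treated versus vehicle-treated mice with transplantable tumors; survival or tumor size compared as T/C.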

[1] = endpoint: median tumor weight change, dose: 1.25 mg/kg/injection, schedule: Q01DX001 (ip), vehicle: saline with Tween-80
[2] = endpoint: median tumor weight change, dose: 5.0 mg/kg/injection, schedule: Q01DX001 (ip), vehicle: saline with Tween-80
[3] = endpoint: median tumor weight (est.), dose: 3.12 mg/kg/injection, schedule: Q07DX005 (ip), vehicle: saline with Tween-80
[4] = endpoint: median tumor weight (est.), dose: 6.25 mg/kg/injection, schedule: Q07DX005 (ip), vehicle: saline with Tween-80
[5] = endpoint: median tumor weight (est.), dose: 12.5 mg/kg/injection, schedule: Q07DX005 (ip), vehicle: saline with Tween-80
[6] = endpoint: median tumor weight (est.), dose: 12.5 mg/kg/injection, schedule: Q07DX005 (ip), vehicle: Klucel (hydroxypropylcellulose) (HPC)

## O=C1NC(=O)NC(C(=O)O)N1
endpoint: median tumor weight change, dose: 12.0 mg/kg/injection, schedule: Q01DX001 (ip), vehicle: DMSO
  T/C: 79 % of control
endpoint: median tumor weight change, dose: 25.0 mg/kg/injection, schedule: Q01DX001 (ip), vehicle: DMSO
  T/C: 104 % of control
endpoint: median tumor weight change, dose: 50.0 mg/kg/injection, schedule: Q01DX001 (ip), vehicle: DMSO
  T/C: 79 % of control
endpoint: median tumor weight change, dose: 75.0 mg/kg/injection, schedule: Q01DX001 (ip), vehicle: DMSO
  T/C: 83 % of control
endpoint: median tumor weight change, dose: 100.0 mg/kg/injection, schedule: Q01DX001 (ip), vehicle: DMSO
  T/C: 73 % of control
endpoint: median tumor weight change, dose: 150.0 mg/kg/injection, schedule: Q01DX001 (ip), vehicle: DMSO
  T/C: 96 % of control
endpoint: median tumor weight change, dose: 200.0 mg/kg/injection, schedule: Q01DX001 (ip), vehicle: DMSO
  T/C: 83 % of control
endpoint: median tumor weight change, dose: 300.0 mg/kg/injection, schedule: Q01DX001 (ip), vehicle: DMSO
  T/C: 86 % of control
endpoint: median tumor weight change, dose: 400.0 mg/kg/injection, schedule: Q01DX001 (ip), vehicle: DMSO
  T/C: 56 % of control
endpoint: median tumor weight change, dose: 600.0 mg/kg/injection, schedule: Q01DX001 (ip), vehicle: DMSO
  T/C: 80 % of control

## CC1=C[C@@]23[C@H](C=C(C(=O)O)[C@@H]2COC(=O)[C@]32CO2)[C@@H]1C
endpoint: median tumor weight change, dose: 0.31 mg/kg/injection, schedule: Q01DX001 (ip), vehicle: saline
  T/C: 116 % of control
endpoint: median tumor weight change, dose: 0.62 mg/kg/injection, schedule: Q01DX001 (ip), vehicle: saline
  T/C: 115 % of control
endpoint: median tumor weight change, dose: 1.25 mg/kg/injection, schedule: Q01DX001 (ip), vehicle: saline
  T/C: 98 % of control
endpoint: median tumor weight change, dose: 2.5 mg/kg/injection, schedule: Q01DX001 (ip), vehicle: saline
  T/C: 85 % of control
endpoint: median tumor weight change, dose: 5.0 mg/kg/injection, schedule: Q01DX001 (ip), vehicle: saline
  T/C: 100 % of control

## OC(C1CO1)C(O)C1CO1 (centres undefined)
endpoint: median tumor weight (est.), dose: 0.5 mg/kg/injection, schedule: Q07DX005 (ip), vehicle: saline
  T/C: 49 % of control
endpoint: median tumor weight (est.), dose: 1.0 mg/kg/injection, schedule: Q07DX005 (ip), vehicle: saline
  T/C: 28 % of control
endpoint: median tumor weight (est.), dose: 2.0 mg/kg/injection, schedule: Q07DX005 (ip), vehicle: saline
  T/C: 37 % of control
endpoint: median tumor weight (est.), dose: 4.0 mg/kg/injection, schedule: Q07DX005 (ip), vehicle: saline
  T/C: 13 % of control
endpoint: median tumor weight (est.), dose: 8.0 mg/kg/injection, schedule: Q07DX005 (ip), vehicle: saline
  T/C: 5 % of control

## COC1=C2C[C@@H](C)C[C@@H](OC)[C@@H](O)[C@H](C)/C=C(\C)[C@@H](OC(N)=O)[C@H](OC)/C=C\C=C(/C)C(=O)NC(=CC1=O)C2=O
[1]
  T/C: 93 % of control and 98 % of control
endpoint: median tumor weight change, dose: 2.5 mg/kg/injection, schedule: Q01DX001 (ip), vehicle: saline with Tween-80
  T/C: 117 % of control and 121 % of control
[2]
  T/C: 46 % of control

## O=Cc1ccc(C=O)c(Cl)c1
endpoint: median tumor weight change, dose: 125.0 mg/kg/injection, schedule: Q01DX001 (ip), vehicle: Klucel (hydroxypropylcellulose) (HPC)
  T/C: 104 % of control
endpoint: median tumor weight change, dose: 250.0 mg/kg/injection, schedule: Q01DX001 (ip), vehicle: Klucel (hydroxypropylcellulose) (HPC)
  T/C: 99 % of control
endpoint: median tumor weight change, dose: 500.0 mg/kg/injection, schedule: Q01DX001 (ip), vehicle: Klucel (hydroxypropylcellulose) (HPC)
  T/C: 79 % of control
endpoint: median tumor weight change, dose: 1000.0 mg/kg/injection, schedule: Q01DX001 (ip), vehicle: Klucel (hydroxypropylcellulose) (HPC)
  T/C: 117 % of control
endpoint: median tumor weight change, dose: 2000.0 mg/kg/injection, schedule: Q01DX001 (ip), vehicle: Klucel (hydroxypropylcellulose) (HPC)
  T/C: 67 % of control

## O=c1cc(CCl)[nH]nc1CCl
[3]
  T/C: 86 % of control and 88 % of control
[4]
  T/C: 96 % of control and 103 % of control
[5]
  T/C: 92 % of control and 106 % of control
endpoint: median tumor weight (est.), dose: 50.0 mg/kg/injection, schedule: Q07DX005 (ip), vehicle: saline with Tween-80
  T/C: 55 % of control

## C/C=C/c1cc2n(c1)C(=O)c1cc(OC3OC(C)C(NC)C(C)(O)C3O)c(C)c(O)c1NC2O (centres undefined)
endpoint: median tumor weight (est.), dose: 1.0 micrograms/kg/injection, schedule: Q07DX005 (ip), vehicle: saline
  T/C: 60 % of control

## CC12CC(C(=O)O)C3(O)CC(C)(C1)CC(C)(C2)C3 (centres undefined) (tested in a mixture with another compound)
[6]
  T/C: 93 % of control
endpoint: median tumor weight (est.), dose: 25.0 mg/kg/injection, schedule: Q07DX005 (ip), vehicle: Klucel (hydroxypropylcellulose) (HPC)
  T/C: 78 % of control
endpoint: median tumor weight (est.), dose: 50.0 mg/kg/injection, schedule: Q07DX005 (ip), vehicle: Klucel (hydroxypropylcellulose) (HPC)
  T/C: 56 % of control
endpoint: median tumor weight (est.), dose: 200.0 mg/kg/injection, schedule: Q07DX005 (ip), vehicle: Klucel (hydroxypropylcellulose) (HPC)
  T/C: 87 % of control
endpoint: median tumor weight (est.), dose: 400.0 mg/kg/injection, schedule: Q07DX005 (ip), vehicle: Klucel (hydroxypropylcellulose) (HPC)
  T/C: 71 % of control

## O=C1NC(=O)/C(=C/C=C/c2ccccc2)S1
[5]
  T/C: 66 % of control
endpoint: median tumor weight (est.), dose: 25.0 mg/kg/injection, schedule: Q07DX005 (ip), vehicle: saline with Tween-80
  T/C: 100 % of control
endpoint: median tumor weight (est.), dose: 100.0 mg/kg/injection, schedule: Q07DX005 (ip), vehicle: saline with Tween-80
  T/C: 81 % of control
endpoint: median tumor weight (est.), dose: 200.0 mg/kg/injection, schedule: Q07DX005 (ip), vehicle: saline with Tween-80
  T/C: 101 % of control

## C#CC[N+]12CN3CN(CN(C3)C1)C2
endpoint: mean tumor weight, dose: 12.5 mg/kg/injection, schedule: Q07DX007 (ip), vehicle: saline
  T/C: 48 % of control
endpoint: mean tumor weight, dose: 25.0 mg/kg/injection, schedule: Q07DX007 (ip), vehicle: saline
  T/C: 70 % of control
endpoint: mean tumor weight, dose: 50.0 mg/kg/injection, schedule: Q07DX007 (ip), vehicle: saline
  T/C: 81 % of control
endpoint: mean tumor weight, dose: 100.0 mg/kg/injection, schedule: Q07DX007 (ip), vehicle: saline
  T/C: 150 % of control
endpoint: mean tumor weight, dose: 200.0 mg/kg/injection, schedule: Q07DX007 (ip), vehicle: saline
  T/C: 97 % of control

## C/C(=N/NC(N)=S)c1ccc2ccccc2c1
[3]
  T/C: 152 % of control
[4]
  T/C: 95 % of control and 100 % of control
[5]
  T/C: 69 % of control and 72 % of control

## C=CS(C=C)=NS(=O)(=O)c1ccc(C)cc1
endpoint: median tumor weight (est.), dose: 3.12 mg/kg/injection, schedule: Q07DX005 (ip), vehicle: Klucel (hydroxypropylcellulose) (HPC)
  T/C: 94 % of control
endpoint: median tumor weight (est.), dose: 6.25 mg/kg/injection, schedule: Q07DX005 (ip), vehicle: Klucel (hydroxypropylcellulose) (HPC)
  T/C: 101 % of control
[6]
  T/C: 89 % of control

## O=C1c2ccccc2C(=O)c2c(NCCNCCO)ccc(O)c21
endpoint: median tumor weight change, dose: 25.0 mg/kg/injection, schedule: Q01DX001 (ip), vehicle: saline with Tween-80
  T/C: 91 % of control
endpoint: median tumor weight change, dose: 50.0 mg/kg/injection, schedule: Q01DX001 (ip), vehicle: saline with Tween-80
  T/C: 44 % of control
endpoint: median tumor weight change, dose: 100.0 mg/kg/injection, schedule: Q01DX001 (ip), vehicle: saline with Tween-80
  T/C: 41 % of control
endpoint: median tumor weight change, dose: 200.0 mg/kg/injection, schedule: Q01DX001 (ip), vehicle: saline with Tween-80
  T/C: 33 % of control

## CN(C)CCC(=O)C(=Cc1ccc(O)cc1)C(=O)CCN(C)C
endpoint: median tumor weight change, dose: 50.0 mg/kg/injection, schedule: Q01DX001 (ip), vehicle: suspension in saline
  T/C: 96 % of control
endpoint: median tumor weight change, dose: 62.5 mg/kg/injection, schedule: Q01DX001 (ip), vehicle: saline
  T/C: 90 % of control
endpoint: median tumor weight change, dose: 100.0 mg/kg/injection, schedule: Q01DX001 (ip), vehicle: suspension in saline
  T/C: 87 % of control
endpoint: median tumor weight change, dose: 125.0 mg/kg/injection, schedule: Q01DX001 (ip), vehicle: saline
  T/C: 62 % of control

## O=C(O)C1CC(c2ccccc2)=NN1c1ccccc1 (centres undefined)
endpoint: median tumor weight (est.), dose: 12.5 mg/kg/injection, schedule: Q07DX005 (ip), vehicle: water
  T/C: 101 % of control
endpoint: median tumor weight (est.), dose: 25.0 mg/kg/injection, schedule: Q07DX005 (ip), vehicle: water
  T/C: 83 % of control
endpoint: median tumor weight (est.), dose: 50.0 mg/kg/injection, schedule: Q07DX005 (ip), vehicle: water
  T/C: 83 % of control
endpoint: median tumor weight (est.), dose: 100.0 mg/kg/injection, schedule: Q07DX005 (ip), vehicle: water
  T/C: 78 % of control
endpoint: median tumor weight (est.), dose: 200.0 mg/kg/injection, schedule: Q07DX005 (ip), vehicle: water
  T/C: 70 % of control

## COC(C(=O)C(O)C(C)O)C1CC2C=C3C=C(OC4CC(OC5CC(O)C(OC)C(C)O5)C(OC(C)=O)C(C)O4)C(C)C(=O)C3=C(O)C2=C(O)C1OC1CC(OC2CC(OC3CC(C)(O)C(O)C(C)O3)C(O)C(C)O2)C(O)C(C)O1 (centres undefined)
endpoint: mean tumor weight, dose: 1.0 mg/kg/injection, schedule: Q07DX005 (ip), vehicle: saline
  T/C: 73 % of control
endpoint: mean tumor weight, dose: 2.0 mg/kg/injection, schedule: Q07DX005 (ip), vehicle: saline
  T/C: 64 % of control
endpoint: median tumor weight (est.), dose: 0.5 mg/kg/injection, schedule: Q07DX005 (ip), vehicle: saline with Tween-80
  T/C: 58 % of control
endpoint: median tumor weight (est.), dose: 1.0 mg/kg/injection, schedule: Q07DX005 (ip), vehicle: saline with Tween-80
  T/C: 78 % of control
endpoint: median tumor weight (est.), dose: 2.0 mg/kg/injection, schedule: Q07DX005 (ip), vehicle: saline with Tween-80
  T/C: 89 % of control

## CC1=CC2C(O)(CC(CO)=CC3C4C(C)(C)C4(OC(=O)c4ccccc4)C(OC(=O)c4ccccc4)C(C)C32O)C1=O (centres undefined)
endpoint: median tumor weight change, dose: 0.63 mg/kg/injection, schedule: Q01DX001 (ip), vehicle: saline with Tween-80
  T/C: 88 % of control
[1]
  T/C: 58 % of control
[2]
  T/C: 96 % of control
